Reference: ChEMBL document CHEMBL1143443, “Discovery of (naphthalen-4-yl)(phenyl)methanones and N-methyl-N-phenylnaphthalen-1-amines as new apoptosis inducers using a cell- and caspase-based HTS assay” (Bioorg Med Chem Lett, 2008)

How the values were obtained:
[1] = system: HCT-116; experiment: Induction of apoptosis in human HCT116 cells assessed as caspase activation by HTS assay; assay type: functional, cell-based
[2] = system: SNU-398; experiment: Induction of apoptosis in human SNU398 cells assessed as caspase activation by HTS assay; assay type: functional, cell-based
[3] = system: T47D; experiment: Induction of apoptosis in human T47D cells assessed as caspase activation by HTS assay; assay type: functional, cell-based
[4] = system: HCT-116; experiment: Cell cycle arrest in human HCT116 cells assessed as increase in subG1 phase population at 100 nM after 24 hrs by flow cytometry; assay type: functional
[5] = system: HCT-116; experiment: Cell cycle arrest in human HCT116 cells assessed as increase in G2/M phase population at 100 nM after 24 hrs by flow cytometry; assay type: functional
[6] = system: SNU-398; experiment: Cytotoxicity against human SNU398 cells; assay type: functional
[7] = system: HCT-116; experiment: Cell cycle arrest in human HCT116 cells assessed as increase in subG1 phase population at 100 nM after 48 hrs by flow cytometry; assay type: functional
[8] = system: HCT-116; experiment: Cytotoxicity against human HCT116 cells; assay type: functional
[9] = system: T47D; experiment: Cytotoxicity against human T47D cells; assay type: functional

Structure (SMILES): COc1ccc(C(OC)c2ccc(N(C)C)c3ccccc23)cc1 (stereo not given)
- EC50 [1]: 620 nM
- EC50 [2]: 760 nM
- EC50 [3]: 590 nM

Structure (SMILES): COc1cc(OC)cc(C(=O)c2ccc(N(C)C)c3ccccc23)c1
- EC50 [1]: 1900 nM
- EC50 [2]: 1500 nM
- EC50 [3]: 1300 nM

Structure (SMILES): COc1cccc(N(C)c2ccc(N(C)C)c3ccccc23)c1
- EC50 [1]: 4600 nM
- EC50 [2]: 4700 nM
- EC50 [3]: 4400 nM

Structure (SMILES): CN(C)c1ccc(C(=O)c2ccc(N(C)C)c3ccccc23)cc1
- Activity [4]: 4%
- Activity [5]: 12%
- GI50 [6]: 27 nM
- Activity [7]: 53%
- GI50 [8]: 68 nM
- EC50 [1]: 49 nM
- EC50 [2]: 44 nM
- GI50 [9]: 34 nM
- EC50 [3]: 37 nM

Structure (SMILES): COc1ccc(N(C)c2ccc([N+](=O)[O-])c3ccccc23)cc1
- EC50 [1]: 280 nM
- EC50 [2]: 330 nM
- EC50 [3]: 240 nM

Structure (SMILES): COc1ccc(N(C)c2ccc(N(C)C)c3ccccc23)cc1
- GI50 [6]: 150 nM
- GI50 [8]: 320 nM
- EC50 [1]: 610 nM
- EC50 [2]: 720 nM
- GI50 [9]: 260 nM
- EC50 [3]: 510 nM

Structure (SMILES): COc1ccc(C(=O)c2ccc([N+](=O)[O-])cc2)c2ccccc12
- EC50 [1]: > 10000 nM
- EC50 [2]: > 10000 nM
- EC50 [3]: > 10000 nM

Structure (SMILES): COc1ccc(C(=O)c2ccc(N(C)C)cc2)c2ccccc12
- EC50 [1]: 1200 nM
- EC50 [2]: 980 nM
- EC50 [3]: 810 nM

Structure (SMILES): COc1cc(C(=O)c2ccc(N(C)C)c3ccccc23)cc(OC)c1OC
- EC50 [1]: 1200 nM
- EC50 [2]: 570 nM
- EC50 [3]: 420 nM

Structure (SMILES): COc1ccc(C(=O)c2ccc(N(C)C)c3ccccc23)cc1
- GI50 [6]: 27 nM
- GI50 [8]: 100 nM
- EC50 [1]: 86 nM
- EC50 [2]: 74 nM
- GI50 [9]: 39 nM
- EC50 [3]: 72 nM

Structure (SMILES): COc1ccc(C(=O)c2ccc(N(C)C)c3ccccc23)cc1OC
- EC50 [1]: 650 nM
- EC50 [2]: 560 nM
- EC50 [3]: 470 nM

Structure (SMILES): COc1cccc(C(=O)c2ccc(N(C)C)c3ccccc23)c1
- EC50 [1]: 5100 nM
- EC50 [2]: 3500 nM
- EC50 [3]: 2600 nM

Structure (SMILES): CN(C)c1ccc(C(O)c2ccc(N(C)C)c3ccccc23)cc1 (stereo not given)
- EC50 [1]: 490 nM
- EC50 [2]: 520 nM
- EC50 [3]: 380 nM

Structure (SMILES): COc1ccc(C(O)c2ccc(N(C)C)c3ccccc23)cc1 (stereo not given)
- GI50 [6]: 170 nM
- GI50 [8]: 490 nM
- EC50 [1]: 260 nM
- EC50 [2]: 170 nM
- GI50 [9]: 230 nM
- EC50 [3]: 140 nM

Structure (SMILES): COc1ccc(N(C)c2ccc(N)c3ccccc23)cc1
- EC50 [1]: 11000 nM
- EC50 [2]: 5300 nM
- EC50 [3]: 12000 nM
